In paper PMC9024338, “Bruceine H Mediates EGFR-TKI Drug Persistence in NSCLC by Notch3-Dependent β-Catenin Activating FOXO3a Signaling” (Frontiers in Oncology, 2022):

Legend:
[1] = Toxicity study in nude mice: organ index, blood routine, serum biochemistry; format: in vivo
Description: At the end of the experiment, blood samples were taken and analyzed by blood routine. […] The lungs and spleen were weighed and recorded. H&E staining of the heart, liver, spleen, lungs, and kidneys was performed to evaluate the cytotoxic effects of BH.

PC-9/GR cells = experiment: CCK-8 cell viability assay, PC-9/GR (gefitinib-resistant); format: cell-based; conditions: Homo sapiens, 48 h, Figure 3B, unit only in axis title Concentration (μM)
Description: The human NSCLC cell lines (A549, PC-9, and PC-9/GR) and other cell lines (16HBE and LO2) were purchased from the American Type Culture Collection (ATCC, Manassas, VA, USA). […] All cell lines were cultivated at 37°C under 5% CO2.
The Cell Counting Kit-8 assays (Beyotime, Shanghai, China) were performed to assess cell viability. […] Microplate readers (Infinite F500, Tecan, Mannedorf, Switzerland) were used to measure the absorbance (A) at 450 nm. All samples were assessed in triplicate.

A549 cells [2] = experiment: Wound healing assay for migration; format: cell-based, human; conditions: 4 μM, 48 h
Description: A549 cells (3 × 10^5/ml/well) were seeded into a six-well plate. After overnight culture, when the fusion rate reached 95%–100%, the sterile pipette tip was perpendicular to the plate plane, and a straight wound was drawn on the cell monolayer. Following treatment with BD or BH, the migration of the cells was examined under a microscope (×4, Nikon, Tokyo, Japan), and pictures were obtained at 0 and 48 h. The computation of the cell migration formula is as follows: relative migration area (%) = (0 h wound area – 48 h wound area)/0 h wound area × 100%.

A549 cells [3] = experiment: Transwell migration and Matrigel invasion assays; format: cell-based, human; conditions: dose-dependent, 12 h treatment
Description: The Transwell insert in a 24-well plate (8 μm, Corning, NY, USA) was taken out, and a 600-μl medium containing 10% FBS was added to the bottom chamber. The A549 cells were resuspended with 10% FBS culture medium, and the diluted cell suspension (3 × 10^5/300 μl) was cultured in the top chamber and then incubated with or without Matrigel (BD BioCoat). After 12 h, the medium in the top chamber was changed to RPMI-1640 without FBS, and BD or BH with different concentrations was added ([31]). After an additional 12 h, the cells that migrated or invaded the bottom side of the polycarbonate film were fixed with methanol for 30 min and then stained for 15 min with 0.1% crystal violet (Solarbio), after which their number was assessed under a microscope (×4, Nikon).

PC-9/GR xenografts = PC-9/GR xenografts in BALB/c nude mice; format: in vivo; conditions: BH 2.5 mg/kg, gefitinib 25 mg/kg, alone or co-administered, intragastric
[4] = nude mice serum, mean ± SD (Table S4)
[5] = nude mice, routine blood (Table S3)
[6] = nude mice, Gef 25, BH 2.5, Gef + BH 25 + 2.5 mg×kg^-1×d^-1, X±S

In the case of `CC1=CC(=O)[C@@H](O)[C@]2(C)[C@H]3[C@@H](O)[C@H](O)[C@@]4(CO)OC[C@@]35[C@@H](C[C@@H]12)OC(=O)[C@H](O)[C@]54O` [BH, Bruceine H], the HDL-C [1, 4] is reported as 1.14 ± 0.18 mmol/L, the LDL-C [1, 4] is reported as 1.40 ± 0.08 mmol/L and the TC [1, 4] is reported as 3.25 ± 0.21 mmol/L. The TG [1, 4] was 0.70 ± 0.16 mmol/L, the GR [1, 5] was 3.36±2.394 ×10^9/L and the “GR (%)” value [1, 5] was 80.567±11.274%. The HCT [1, 5] was 62.867±5.658%, the HGB [1, 5] was 172.333 ± 12.014 g/L and the LY [1, 5] was 0.920±0.401 ×10^9/L. The “LY (%)” value [1, 5] was 14.7±6.165%, the MCH [1, 5] was 15.567 ± 0.289 pg and the MCHC [1, 5] was 296.333 ± 10.970 g/L. The MCV [1, 5] was 52.567 ± 1.823 fL, the MO [1, 5] was 0.242±0.045 ×10^9/L and the “MO (%)” value [1, 5] was 5.043±1.086%. The MPV [1, 5] was 7.267 ± 0.208 fL, the PCT [1, 5] was 0.753±0.195 mL/L and the PLT [1, 5] was 1030±241.156 ×10^9/L. The RBC [1, 5] was 13.193±1.792 ×10^12/L, the WBC [1, 5] was 6.633±2.371 ×10^8/L and the Lung index [1, 6] was 32.463 ± 2.078 g/kg. The Spleen index [1, 6] was 5.949 ± 0.526 g/kg, the IC50 (PC-9/GR cells) was 21.7 µM and the “migration of A549 cells (wound healing)” value (A549 cells [2]) was “impaired”. For the same molecule, the “Transwell migration and invasion of A549” value (A549 cells [3]) was “significant anti-invasive and antimigratory actions” and the “tumor growth of PC-9/GR xenografts” value (PC-9/GR xenografts) was “slight inhibitory effect”.
